# Measured values from patent US12043599B2, “Herbicidal compounds” (SYNGENTA PARTICIPATIONS AG, priority 2018, dated 2024).
# Key:
# Type in all cases: in vivo
# Details in all cases: 250 g/h, evaluated after 13 days
# Avena fatua (AVEFA) [1] = assay: Pre-emergence herbicidal glasshouse test, percentage damage
# Method: (§1) Seeds of a variety of test species are sown in standard soil in pots (Lolium perenne (LOLPE), Setaria faberi (SETFA), Alopecurus myosuroides (ALOMY), Echinochloa crus-galli (ECHCG), Avena fatua (AVEFA)). After cultivation for one day (pre-emergence) or after 8 days cultivation (post-emergence) under controlled conditions in a glasshouse (at 24/16° C., day/night; 14 hours light; 65% humidity), the plants are sprayed with an aqueous spray solution derived from the formulation of the technical active ingredient in acetone/water (50:50) solution containing 0.5% Tween 20 (polyoxyethelyene sorbitan monolaurate, CAS RN 9005-64-5). Compounds are applied at […]. The test plants are then grown in a glasshouse under controlled conditions in a glasshouse (at 24/16° C., day/night; 14 hours light; 65% humidity) and watered twice daily. After 13 days for pre and post-emergence, the test is evaluated for the percentage damage caused to the plant. The biological activities are shown in the following table on a five point scale (5=80-100%; 4=60-79%; 3=40-59%; 2=20-39%; 1=0-19%).
# [2] = test system: Echinochloa crus-galli (ECHCG); assay: as above
# Method: as §1
# Lolium perenne (LOLPE) [3] = assay: as above
# Method: as §1
# Setaria faberi (SETFA) [4] = assay: as above
# Method: as §1
# Setaria faberi (SETFA) [5] = assay: Post-emergence herbicidal glasshouse test, percentage damage
# Method: as §1
# Using procedures outlines above, wheat and barley crop plants and a weed species (SETFA) are treated post-emergence with compound A11 of the present invention or comparator compound C1 (Compound A-38 from WO2014/096289) at the application rates indicated. The compounds were also applied to wheat in conjunction with the safener compound cloquintocet-mexyl (CQC) at 50 g/ha.
# Avena fatua (AVEFA) [6] = assay: as above
# Method: as §1
# [7] = test system: Echinochloa crus-galli (ECHCG); assay: as above
# Method: as §1
# Lolium perenne (LOLPE) [8] = assay: as above
# Method: as §1
Structure (SMILES),AVEFA PRE percentage damage (five point scale) (Avena fatua (AVEFA) [1]),ECHCG PRE percentage damage (five point scale) [2],LOLPE PRE percentage damage (five point scale) (Lolium perenne (LOLPE) [3]),SETFA PRE percentage damage (five point scale) (Setaria faberi (SETFA) [4]),SETFA POST percentage damage (five point scale) (Setaria faberi (SETFA) [5]),AVEFA POST percentage damage (five point scale) (Avena fatua (AVEFA) [6]),ECHCG POST percentage damage (five point scale) [7],LOLPE POST percentage damage (five point scale) (Lolium perenne (LOLPE) [8])
CC#Cc1cc(C)c(C2C(=O)CC3(CCN(C(=O)c4ccc(OC)cn4)CC3)CC2=O)c(C)c1 [Compound A121],4 (4=60-79%),5 (5=80-100%),5 (5=80-100%),5 (5=80-100%),5 (5=80-100%),5 (5=80-100%),5 (5=80-100%),5 (5=80-100%)
CC#Cc1cc(C)c(C2C(=O)CC3(CCN(C(=O)c4cc(C)nc(C)n4)CC3)CC2=O)c(C)c1 [Compound A122],5 (5=80-100%),5 (5=80-100%),5 (5=80-100%),5 (5=80-100%),5 (5=80-100%),5 (5=80-100%),5 (5=80-100%),5 (5=80-100%)
CC#Cc1cc(C)c(C2C(=O)CC3(CCN(C(=O)c4cocn4)CC3)CC2=O)c(C)c1 [Compound A123],5 (5=80-100%),5 (5=80-100%),5 (5=80-100%),5 (5=80-100%),5 (5=80-100%),5 (5=80-100%),5 (5=80-100%),5 (5=80-100%)
CC#Cc1cc(C)c(C2C(=O)CC3(CCN(C(=O)CCOC)CC3)CC2=O)c(C)c1 [Compound A124],5 (5=80-100%),5 (5=80-100%),5 (5=80-100%),5 (5=80-100%),5 (5=80-100%),5 (5=80-100%),5 (5=80-100%),5 (5=80-100%)
CC#Cc1cc(C)c(C2C(=O)CC3(CCN(C(=O)c4ccnc(F)c4)CC3)CC2=O)c(C)c1 [Compound A125],5 (5=80-100%),5 (5=80-100%),5 (5=80-100%),5 (5=80-100%),5 (5=80-100%),5 (5=80-100%),5 (5=80-100%),5 (5=80-100%)
CC#Cc1cc(C)c(C2C(=O)CC3(CCN(C(=O)c4cnn(C)n4)CC3)CC2=O)c(C)c1 [Compound A126],5 (5=80-100%),5 (5=80-100%),5 (5=80-100%),5 (5=80-100%),5 (5=80-100%),5 (5=80-100%),5 (5=80-100%),5 (5=80-100%)
CC#Cc1cc(C)c(C2C(=O)CC3(CCN(C(=O)c4cnc(C)cn4)CC3)CC2=O)c(C)c1 [Compound A127],5 (5=80-100%),5 (5=80-100%),5 (5=80-100%),5 (5=80-100%),5 (5=80-100%),5 (5=80-100%),5 (5=80-100%),5 (5=80-100%)
CC#Cc1cc(C)c(C2C(=O)CC3(CCN(C(=O)C4CCCOC4)CC3)CC2=O)c(C)c1 (centres unmarked) [Compound A128],3 (3=40-59%),5 (5=80-100%),5 (5=80-100%),5 (5=80-100%),4 (4=60-79%),5 (5=80-100%),5 (5=80-100%),5 (5=80-100%)
CC#Cc1cc(C)c(C2C(=O)CC3(CCN(C(=O)C4CCOC4)CC3)CC2=O)c(C)c1 (centres unmarked) [Compound A129],5 (5=80-100%),5 (5=80-100%),5 (5=80-100%),5 (5=80-100%),5 (5=80-100%),5 (5=80-100%),5 (5=80-100%),5 (5=80-100%)
CC#Cc1cc(C)c(C2C(=O)CC3(CCN(C(=O)c4ccc(OC)nn4)CC3)CC2=O)c(C)c1 [Compound A132],5 (5=80-100%),5 (5=80-100%),5 (5=80-100%),5 (5=80-100%),5 (5=80-100%),5 (5=80-100%),5 (5=80-100%),5 (5=80-100%)
CC#Cc1cc(C)c(C2C(=O)CC3(CCN(C(=O)C4COCCO4)CC3)CC2=O)c(C)c1 (centres unmarked) [Compound A133],5 (5=80-100%),5 (5=80-100%),5 (5=80-100%),5 (5=80-100%),5 (5=80-100%),5 (5=80-100%),5 (5=80-100%),5 (5=80-100%)
CC#Cc1cc(C)c(C2C(=O)CC3(CCN(C(=O)c4nn(C)nc4C)CC3)CC2=O)c(C)c1 [Compound A134],5 (5=80-100%),5 (5=80-100%),5 (5=80-100%),5 (5=80-100%),5 (5=80-100%),5 (5=80-100%),5 (5=80-100%),5 (5=80-100%)
CC#Cc1cc(C)c(C2C(=O)CC3(CCN(C(=O)c4csnn4)CC3)CC2=O)c(C)c1 [Compound A135],5 (5=80-100%),5 (5=80-100%),5 (5=80-100%),5 (5=80-100%),5 (5=80-100%),5 (5=80-100%),5 (5=80-100%),5 (5=80-100%)
